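How tested: cells in 96-well plates exposed to compound for 48 hours at five concentrations. GI50: concentration for 50% inhibition of growth.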 The source made the active and inactive calls. Rule as the data show it: active = GI50 up to about 1.1 µM and inactive = higher.
Columns and labels:
Experiment in all cases: NCI tumour cell line growth inhibition, 48 h
T47D = system: T47D
MDA-MB-435 = system: MDA-MB-435
DU-145 = system: DU-145
Hs-578T = system: Hs-578T
PC-3 = system: PC-3
MDA-N = system: MDA-N
BT-549 = system: BT-549
LXFL 529 = system: LXFL 529
RXF 631 = system: RXF 631

Measured: GI50

C=CCn1c(=O)ccn(COCCO)c1=O
inactive: T47D > 100 µM | MDA-MB-435 > 100 µM | DU-145 > 100 µM | Hs-578T > 100 µM | PC-3 > 100 µM | MDA-N > 100 µM | BT-549 > 100 µM

CCOC(=O)c1cc2c([N+](=O)[O-])c(NC(C)=O)ccc2s1
inactive: T47D 15 µM | MDA-MB-435 76.4 µM | DU-145 49 µM | Hs-578T 37.8 µM | PC-3 33.5 µM | MDA-N 81.8 µM | BT-549 72.1 µM

CSCCC(N)P(C)(=O)O (stereo not drawn)
inactive: T47D > 100 µM | MDA-MB-435 > 22.2 µM | DU-145 > 100 µM | Hs-578T > 100 µM | PC-3 > 100 µM | MDA-N > 100 µM | BT-549 > 100 µM

O=C1/C(=C/c2ccccc2)NC(=S)N1CN1CCOCC1
inactive: MDA-MB-435 > 100 µM | DU-145 > 100 µM | Hs-578T > 100 µM | PC-3 > 100 µM | MDA-N > 100 µM

O=[N+]([O-])C(/C=C(\Cl)[N+](=O)[O-])=C1Nc2ccccc2N1
inactive: T47D 17.9 µM | MDA-MB-435 42.6 µM | DU-145 > 100 µM | Hs-578T 48.9 µM | PC-3 46.3 µM | MDA-N 59.8 µM | BT-549 42 µM

O=P(CCOc1ccccc1OCCP(=O)(c1ccccc1)c1ccc2c(c1)OCCOCCOCCOCCO2)(c1ccccc1)c1ccc2c(c1)OCCOCCOCCOCCO2 (stereo not drawn)
inactive: LXFL 529 > 100 µM

COc1ccc(C2=NN(c3nsc4ccccc34)C(=O)CC2)cc1
inactive: LXFL 529 75 µM

COC(=O)C(=O)C(C(C)=O)C(=O)C(=O)Nc1ccc(C)cc1C (stereo not drawn)
inactive: LXFL 529 > 100 µM

CC(C)(C)[Si](OC1CCOC1=O)(c1ccccc1)c1ccccc1 (stereo not drawn)
inactive: LXFL 529 20.7 µM | RXF 631 22.5 µM

COc1cccc(CC(C)N)c1 (stereo not drawn)
inactive: LXFL 529 > 100 µM | RXF 631 > 100 µM

Cc1nc2cccc(F)c2c(=O)n1C1CCCCNC1=O (stereo not drawn)
inactive: T47D > 10 µM | MDA-MB-435 > 10 µM | DU-145 > 10 µM | Hs-578T > 10 µM | PC-3 > 10 µM | MDA-N > 10 µM

NC(=S)N/N=C1\CC(c2ccccc2)Nc2ccccc21 (stereo not drawn)
inactive: LXFL 529 33.8 µM

CCOP(=Nc1ccc(N(C)C)cc1)(OCC)OCC
inactive: MDA-MB-435 > 100 µM | DU-145 > 100 µM | Hs-578T > 100 µM | PC-3 > 100 µM | MDA-N > 100 µM | BT-549 > 100 µM

COc1c(Cl)cc(Cl)cc1S(=O)O
inactive: LXFL 529 > 100 µM

CC[C@@H]1C[C@@H]2CN3CCc4c([nH]c5ccc(OC)cc45)C(COC(=O)c4ccc(OC)c(OC)c4)(C2)C13
inactive: LXFL 529 10.6 µM

CON(C)C(=O)C(Cc1ccccc1)NC(=O)OCc1ccccc1 (stereo not drawn)
inactive: LXFL 529 > 100 µM

Cc1cccc(/C=C2\CCCc3ccccc3C2=O)c1
inactive: MDA-MB-435 17 µM | DU-145 28.6 µM | Hs-578T 15.8 µM | PC-3 27.2 µM | MDA-N 19.8 µM | BT-549 24.3 µM

NC(=O)c1csc(C2O[C@@H](COP(=O)(O)OP(=O)(O)OC[C@H]3OC(n4cnc5c(N)ncnc54)[C@H](O)[C@@H]3O)[C@H](O)[C@@H]2O)n1 (stereo partly drawn)
inactive: LXFL 529 > 100 µM
